{"source": "patent US8778948B2", "about": "“Substituted phenylpiperazinyl aralkylalcohol derivatives, pharmaceutical compositions containing such derivatives and uses thereof” (priority 2008, dated 2014)", "key": {"[1]": {"target": "opioid receptor subtype δ (Homo sapiens, UniProt P41143)", "sequence (P41143 whole entry)": "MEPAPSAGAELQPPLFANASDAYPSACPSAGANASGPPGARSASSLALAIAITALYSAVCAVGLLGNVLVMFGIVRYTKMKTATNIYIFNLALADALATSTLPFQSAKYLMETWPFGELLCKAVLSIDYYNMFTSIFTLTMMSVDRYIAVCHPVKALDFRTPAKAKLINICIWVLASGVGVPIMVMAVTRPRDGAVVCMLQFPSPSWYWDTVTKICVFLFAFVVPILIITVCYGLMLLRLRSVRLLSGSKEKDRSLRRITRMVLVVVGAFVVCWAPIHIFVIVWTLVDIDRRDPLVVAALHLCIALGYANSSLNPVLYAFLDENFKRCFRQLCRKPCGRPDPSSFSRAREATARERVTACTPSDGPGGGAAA", "assay": "Competitive radioligand binding ([3H]Diprenorphine), opioid receptor subtype δ", "experimental": "(§1) Competitive Binding Between the Compounds and Opioid Receptor Subtypes μ, δ, κ\n(§2) The respective test compounds were added to the sample tube (final concentration of 10^−5M), incubated at 37° C. for 30 min and placed in ice bath to terminate the reaction. The reaction mixture was filtered through GF/C(Whatman) glass fiber filter by vacuum filtration on a Millipore sample collector. The filter was washed three times with 50 mM Tris-HCl (pH7.4), each with 4 ml; dried and transferred into a 0.5 ml Eppendorf tube, in which 0.5 ml lipophilic scintillation fluid was added. Radioactivity was detected by a LS6500 scintillation counter. Each concentration had three duplicate test tubes and each separate test was repeated 3 to 4 times.\n(§3) Specific binding CMP value for each sample tube=overall binding CPM value for each sample tube-CPM value of non-specific binding tube. [Inhibition percentage of competitive binding between the test compound and different opioid receptor subtypes (%)=(100%−specific binding (CPM value) of sample tube/specific binding (CPM value) of solvent group×100%)]\nAverage was taken for each test drug from three duplicate tubes; each test was repeated two or more times. Data were presented as mean±SE and statistical comparison was made by ANOVA."}, "Kunming mice [2]": {"tested_on": "Kunming mice", "assay": "Hot-plate test in mice", "type": "in vivo", "details": "1 h post dose, hot plate 55° C.", "experimental": "Kunming mice, SPF KM mice were purchased from […] SLAC LABORATORY ANIMAL CO. LTD and kept in normal environment.\n(§4) 2. Modes of Administration\nThe compounds were dissolved in water for injection at a concentration of 4 mg/ml, 2 mg/ml and 1 mg/ml and were given subcutaneously to animals.\n(§5) Three different doses (10, 20, and 40 mg/kg) were administered to the test groups.\nMorphine was used as a positive control and hot plate test was used.\n30-40 mice (half male and half female) weighing 18-23 g were used. First, each mouse was placed on a hot plat at 55° C. to determine basic pain threshold for 2-3 times. Those animals with basic pain threshold of 5-30 s were qualified, unqualified mice were not used. 30 qualified mice were divided into five groups, including negative control group, positive control group, low-dose group, medium-dose group and high-dose group:\nMice in test groups received test sample solution (10 mg/kg, 20 mg/kg, 40 mg/kg) via subcutaneous injection in the neck. Positive control group received subcutaneous injection of morphine (2 mg/kg). One hour later, pain threshold values were determined for mice in each group as post-drug pain threshold. Percentage increase in pain threshold was calculated according to the following equation: […]"}, "in vivo": {"assay": "in vivo", "details": "mouse, po, mice", "description": "Studies of Acute Toxicity of the Compound I-1 and I-20\nFor statistics of 1-20, Bliss method was used (“Experimental Design and Statistical Basis for Drug Evaluation”, Changxiao Liu, Ruiyuan Su, first edition, Military Medical Science Press, 1993, 80-90)."}, "[3]": {"tested_on": "Salmonella typhimurium histidine auxotroph mutants TA97, TA98, TA100 and TA102", "type": "cell-based", "experimental": "Bacterial Reverse Mutation Test on I-20\nBacterial reverse mutation test on compound I-20 was performed on Salmonella typhimurium histidine auxotroph mutants TA97, TA98, TA100 and TA102 (purchased from MolTox company) using conventional procedures of Ames test.\nObservation period: colony counting was done 48 hours after cultivation at 37° C.\nDrug solutions with different concentrations were prepared with double distilled water, and the doses were 5, 50, 500, 1000, 5000 μg/plate.\nDirect effect of the test drug in the absence of metabolic activity was determined by standard plate incorporation assay. The composition of the test top layer was: 2.0 ml top layer, 0.1 ml drug solution, 0.1 ml bacteria solution and 0.5 ml phosphate buffer.\nPre-incubation was used in the determination of the drug's mutagenic effect in the presence of metabolic activity. The composition of the test top layer is: 2.0 ml top layer, 0.1 ml drug solution, 0.1 ml bacteria solution and 0.5 ml S9 mix.\nThe resulting drug solution, bacterial solution and S9 mix were first incubated at 35° C. for 30 min while shaking, and then tested according to standard plate incorporation assay. Each dose was tested in three plates, each mutant was tested in the absence or presence of metabolic activity (−S9 or +S9) and repeated twice, the number of revertant colonies was calculated as x±SD.\nResults: the test included two parts, −S9 and +S9. […] Other doses had no bacteristatic effect to all strains, and the background growth was good."}, "[4]": {"assay": "Animal model study of compound I-20 (summary statements)"}, "[5]": {"target": "opioid receptor subtype κ (Homo sapiens, UniProt P41145)", "sequence (P41145 whole entry)": "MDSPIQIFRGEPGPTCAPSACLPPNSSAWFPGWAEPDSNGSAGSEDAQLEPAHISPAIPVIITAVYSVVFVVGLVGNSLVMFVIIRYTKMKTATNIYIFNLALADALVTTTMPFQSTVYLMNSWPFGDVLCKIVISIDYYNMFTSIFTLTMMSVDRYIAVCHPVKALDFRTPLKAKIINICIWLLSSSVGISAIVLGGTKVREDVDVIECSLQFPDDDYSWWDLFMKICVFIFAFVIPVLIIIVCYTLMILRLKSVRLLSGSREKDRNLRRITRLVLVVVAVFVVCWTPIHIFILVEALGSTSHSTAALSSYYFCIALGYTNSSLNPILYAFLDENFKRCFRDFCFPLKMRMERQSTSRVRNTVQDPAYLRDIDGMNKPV", "assay": "biochemical", "type": "binding", "experimental": "as §1, §2, §3\n(§6) Average was taken for each test drug from three duplicate tubes; each test was repeated two or more times."}, "[6]": {"target": "opioid receptor subtype μ (Homo sapiens, UniProt P35372)", "sequence (P35372 whole entry)": "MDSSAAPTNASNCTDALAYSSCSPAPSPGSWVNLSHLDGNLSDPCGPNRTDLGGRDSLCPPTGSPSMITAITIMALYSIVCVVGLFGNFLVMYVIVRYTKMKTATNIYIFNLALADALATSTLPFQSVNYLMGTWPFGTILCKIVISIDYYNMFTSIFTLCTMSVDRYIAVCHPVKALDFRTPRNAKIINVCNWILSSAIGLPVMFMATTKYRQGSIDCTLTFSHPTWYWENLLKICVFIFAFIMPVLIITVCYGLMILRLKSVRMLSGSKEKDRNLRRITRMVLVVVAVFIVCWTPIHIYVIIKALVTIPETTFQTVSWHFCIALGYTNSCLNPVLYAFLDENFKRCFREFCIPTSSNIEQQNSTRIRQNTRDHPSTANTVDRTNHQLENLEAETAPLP", "assay": "biochemical", "type": "binding", "experimental": "as §1, §2, §3, §6"}, "Kunming mice [7]": {"tested_on": "Kunming mice", "assay": "Acetic acid-induced abdominal writhing test in mice", "type": "in vivo", "details": "1 h before 0.7% acetic acid i.p.", "experimental": "Acetic Acid-Induced Abdominal Writhing Test in Mice\nKunming mice, SPF KM mice purchased from […] SLAC LABORATORY ANIMAL CO. LTD and kept in normal environment.\nas §4\nThe compounds were dissolved in water for injection at a concentration of 4 mg/ml, 2 mg/ml and 1 mg/ml and were given intragastrically to animals.\nas §5\nAspirin was used as a positive control and acetic acid writhing test was used.\n30 mice (half male and half female) weighing 18-23 g were divided into five groups, including negative control group, positive control group, low dose group, medium dose group and high dose group:\nMice in test group received test drug (10 mg/kg, 20 mg/kg, 40 mg/kg) via intragastric administration. Negative control group received physiological saline (20 ml/kg) via oral administration. Positive control group received aspirin (200 mg/kg) via oral administration. One hour later, each group received 0.7% acetic acid 10 ml/kg intraperitoneally. Five minutes later, the number of writhes was counted within the subsequent 15 min period; inhibition percentage of writhing response in each test group was calculated by the following equation: […]"}}, "note": "“Also recorded” adds a separate entry of the source. Marks after values point to notes of the source that are not given here.", "data": [{"smiles": "COc1ccccc1N1CCN([C@H](C)[C@H](O)c2ccccc2)CC1", "note": "(racemic) [Compound I-20, (1RS,2RS)-1-phenyl-2-(4-(2-methoxyphenyl)piperazinyl)-propan-1-ol]", "values": [{"measurement": "Affinity to opioid receptor subtype δ (in words)", "setting": "[1]", "result": "no obvious affinity"}, {"measurement": "inhibition at 10 µM", "setting": "[1]; read-out: Inhibition percentage of competitive binding, δ", "result": 0, "unit": "%"}, {"measurement": "Percentage increase in pain threshold", "setting": "Kunming mice [2]; 10 mg/kg S.c.", "result": "63.29 * %"}, {"measurement": "Percentage increase in pain threshold", "setting": "Kunming mice [2]; 20 mg/kg S.c.", "result": "80.88 * %"}, {"measurement": "Percentage increase in pain threshold", "setting": "Kunming mice [2]; 40 mg/kg S.c.", "result": "186.25 ** %"}, {"measurement": "LD50", "setting": "in vivo", "result": 674, "unit": "mg/kg"}, {"measurement": "Ames test result", "setting": "[3]; TA97, TA98, TA100, TA102, −S9 and +S9, 5-5000 μg/plate", "result": "negative"}, {"measurement": "Bacteristatic effect on test strains", "setting": "[3]; TA98 in −S9 test system and TA97 in +S9 test system", "result": "bacteristatic effects"}, {"measurement": "Increase in the number of revertant colonies", "setting": "[3]; −S9 and +S9, 5, 50, 500, 1000, 5000 μg/plate", "result": "None of the tested dose resulted in significant increase"}, {"measurement": "Analgesic effect (in words)", "setting": "[4]; animal model study", "result": "obvious analgesic effect"}, {"measurement": "Potential for drug dependence", "setting": "[4]; in vivo", "result": "low potential for drug dependence"}, {"measurement": "Drug resistance after multiple applications", "setting": "[4]; multiple applications", "result": "No drug resistance is observed"}, {"measurement": "Absorption with oral administration (in words)", "setting": "[4]; oral administration", "result": "well absorbed; also recorded: good absorption"}, {"measurement": "Affinity to opioid receptor subtype κ (in words)", "setting": "[5]", "result": "no obvious affinity"}, {"measurement": "inhibition at 10 µM", "setting": "[5]; test concentration 10^−5 mol/L, [3H]Diprenorphine 0.4 nM, mean±SE, read-out: Inhibition percentage of competitive binding, κ", "result": "8.9 ± 0.2", "unit": "%"}, {"measurement": "Affinity to opioid receptor subtype μ (in words)", "setting": "[6]", "result": "no obvious affinity"}, {"measurement": "inhibition at 10 µM", "setting": "[6]; test concentration 10^−5 mol/L, [3H]Diprenorphine 0.4 nM, mean±SE, read-out: Inhibition percentage of competitive binding, μ", "result": "13.4 ± 2.1", "unit": "%"}, {"measurement": "Inhibition percentage of writhing response", "setting": "Kunming mice [7]; 10 mg/kg Ig", "result": 46.61, "unit": "%"}, {"measurement": "Inhibition percentage of writhing response", "setting": "Kunming mice [7]; 20 mg/kg Ig", "result": "72.03 * %"}, {"measurement": "Inhibition percentage of writhing response", "setting": "Kunming mice [7]; 40 mg/kg Ig", "result": 64.41, "unit": "%"}]}]}
